Measured values as given in patent publication US6737383B1, “Herbicidal oxadiazolidines” (priority 1999, dated 2004).

Legend:
morningglory = assay: Test B pre/postemergence morningglory; type: in vivo, Ipomoea hederacea
How it was run: (§1)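 Herbicidal effect was estimated by eye on a ten-point control scale after plants spent twelve to sixteen days in a greenhouse following soil or foliar treatment. Foliar sprays targeted plants at one to four leaves; all doses were formulated in a non-phytotoxic solvent with surfactant.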

corn = assay: Test B pre/postemergence corn; type: in vivo, Zea mays
How it was run: as §1

rape = assay: Test B pre/postemergence rape; type: in vivo, Brassica napus
How it was run: as §1

sugar beet = assay: Test B pre/postemergence sugar beet; type: in vivo, Beta vulgaris
How it was run: as §1

bamyardgrass = assay: Test B flood test barnyardgrass; type: in vivo, Echinochloa crus-galli
How it was run: (§2)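 Read-out is a visual response score from 0 (no effect) to 10 (complete control), assigned by comparison with untreated controls. Treatment was applied at the 2-leaf stage, and plants stayed in the greenhouse for twelve to sixteen days before scoring.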

velvetleaf = assay: Test B pre/postemergence velvetleaf; type: in vivo, Abutilon theophrasti
How it was run: as §1

pigweed = assay: Test B pre/postemergence pigweed; type: in vivo, Amaranthus retroflexus
How it was run: as §1

cocklebur = assay: Test B pre/postemergence cocklebur; type: in vivo, Xanthium strumarium
How it was run: as §1

soybean = assay: Test B pre/postemergence soybean; type: in vivo, Glycine max
How it was run: as §1

duck salad = assay: Test B flood test duck salad; type: in vivo, Heteranthera limosa
How it was run: as §2

smallflower flatsedge = assay: Test B flood test smallflower flatsedge; type: in vivo, Cyperus difformis
How it was run: as §2

crabgrass = assay: Test B pre/postemergence crabgrass; type: in vivo, Digitaria sanguinalis
How it was run: as §1

bedstraw = assay: Test B pre/postemergence bedstraw; type: in vivo, Galium aparine
How it was run: as §1

surinam grass = assay: Test B pre/postemergence surinam grass; type: in vivo, Brachiaria decumbens
How it was run: as §1

wild oat = assay: Test B pre/postemergence wild oat; type: in vivo, Avena fatua
How it was run: as §1

[1] = Postemergence, Rate 62 g/ha, scale of 0 to 10, 0 is no effect, 10 is complete control
[2] = Postemergence, Rate 125 g/ha, scale 0 to 10, 0 is no effect, 10 is complete control
[3] = Postemergence, Rate 500 g/ha, scale 0 to 10, 0 is no effect, 10 is complete control
[4] = Preemergence, Rate 62 g/ha, scale 0 to 10 (0 no effect, 10 complete control)
[5] = Preemergence, Rate 125 g/ha, scale 0 to 10, 0 is no effect, 10 is complete control
[6] = Preemergence, Rate 500 g/ha, scale of 0 to 10 where 0 is no effect and 10 is complete control
[7] = Rate 250 g/ha, Postemergence, scale of 0 to 10 where 0 is no effect and 10 is complete control
[8] = Rate 62 g/ha, flood test species, Pre-emergence, visual evaluation after twelve to sixteen days
[9] = Rate 125 g/ha, under heading Pre-emergence, flood test species, visual evaluation after twelve to sixteen days
[10] = Rate 250 g/ha, Pre-emergence (flood test species), scale 0 to 10, 0 is no effect, 10 is complete control
[11] = Rate 500 g/ha, Pre-emergence section of Table B, 0 to 10 scale (0 no effect, 10 complete control)

CCC=CCn1c(=O)on(C(=O)N(c2ccc(Cl)cc2)C(C)C)c1=O [Compound 552]
5: Sugarbeets plant response rating (sugar beet; [6]) | Bedstraw plant response rating (bedstraw; [2])
9: Crabgrass plant response rating (crabgrass; [2]) | Plant response rating, Crabgrass (crabgrass; [3]) | Crabgrass plant response rating (crabgrass; [4]) | Crabgrass plant response rating (crabgrass; [5]) | B. signalgrass plant response rating (surinam grass; [6])
6: Rape plant response rating (rape; [2]) | Wild oats plant response rating (wild oat; [6])
3: Plant response rating, Sugarbeets (sugar beet; [7]) | Plant response rating, Velvetleaf (velvetleaf; [3]) | Plant response rating, Redroot pigweed (pigweed; [3]) | Plant response rating, Soybean (soybean; [3]) | Plant response rating, Soybean (soybean; [7]) | Crabgrass plant response rating (crabgrass; [1]) | Plant response rating, Wild oats (wild oat; [3])
2: Plant response rating, Morningglory (morningglory; [7]) | Rape plant response rating (rape; [1]) | Plant response rating, Velvetleaf (velvetleaf; [7]) | Plant response rating, Cocklebur (cocklebur; [7]) | Soybean plant response rating (soybean; [1]) | Bedstraw plant response rating (bedstraw; [1])
10: Crabgrass plant response rating (crabgrass; [6]) | Plant response rating, Bedstraw (bedstraw; [3]) | Plant response rating, Bedstraw (bedstraw; [7])
1: Morningglory plant response rating (morningglory; [1]) | Morningglory plant response rating (morningglory; [2])
8: Crabgrass plant response rating (0 to 10 scale) (crabgrass; Preemergence, Rate 250 g/ha) | Bedstraw plant response rating (bedstraw; [6]) | B. signalgrass plant response rating (surinam grass; [5])
7: Plant response rating, Morningglory (morningglory; [3]) | Plant response rating, Rape (rape; [3]) | Plant response rating, Sugarbeets (sugar beet; [3])
0: Morningglory plant response rating (morningglory; [4]) | Morningglory plant response rating (morningglory; [5]) | Morningglory plant response rating (0 to 10 scale) (morningglory; Preemergence, Rate 250 g/ha) | Morningglory plant response rating (morningglory; [6]) | Corn plant response rating (corn; [1]) | Corn plant response rating (corn; [2]) | Plant response rating, Corn (corn; [3]) | Corn plant response rating (corn; [4]) | Corn plant response rating (corn; [5]) | Corn plant response rating (0 to 10 scale) (corn; Preemergence, Rate 250 g/ha) | Corn plant response rating (corn; [6]) | Plant response rating, Corn (corn; [7]) | Rape plant response rating (rape; [4]) | Rape plant response rating (rape; [5]) | Rape plant response rating (0 to 10 scale) (rape; Preemergence, Rate 250 g/ha) | Rape plant response rating (rape; [6]) | Sugarbeets plant response rating (sugar beet; [1]) | Sugarbeets plant response rating (sugar beet; [4]) | Sugarbeets plant response rating (sugar beet; [5]) | Sugarbeets plant response rating (0 to 10 scale) (sugar beet; Preemergence, Rate 250 g/ha) | Plant response rating, Barnyardgrass (0 to 10 scale, 0 is no effect, 10 is complete control) (bamyardgrass; [8]) | Barnyardgrass plant response rating (0 to 10 scale, 0 is no effect, 10 is complete control) (bamyardgrass; [9]) | Barnyardgrass plant response rating (bamyardgrass; [10]) | Barnyardgrass plant response rating (bamyardgrass; [11]) | Velvetleaf plant response rating (velvetleaf; [1]) | Velvetleaf plant response rating (velvetleaf; [4]) | Velvetleaf plant response rating (velvetleaf; [5]) | Velvetleaf plant response rating (0 to 10 scale) (velvetleaf; Preemergence, Rate 250 g/ha) | Velvetleaf plant response rating (velvetleaf; [6]) | Redroot pigweed plant response rating (pigweed; [1]) | Redroot pigweed plant response rating (pigweed; [4]) | Plant response rating, Redroot pigweed (pigweed; [7]) | Cocklebur plant response rating (cocklebur; [1]) | Cocklebur plant response rating (cocklebur; [2]) | Cocklebur plant response rating (cocklebur; [4]) | Cocklebur plant response rating (cocklebur; [5]) | Cocklebur plant response rating (0 to 10 scale) (cocklebur; Preemergence, Rate 250 g/ha) | Cocklebur plant response rating (cocklebur; [6]) | Soybean plant response rating (soybean; [4]) | Soybean plant response rating (soybean; [5]) | Soybean plant response rating (0 to 10 scale) (soybean; Preemergence, Rate 250 g/ha) | Soybean plant response rating (soybean; [6]) | Plant response rating, Ducksalad (0 to 10 scale, 0 is no effect, 10 is complete control) (duck salad; [8]) | Ducksalad plant response rating (0 to 10 scale, 0 is no effect, 10 is complete control) (duck salad; [9]) | Ducksalad plant response rating (duck salad; [10]) | Ducksalad plant response rating (duck salad; [11]) | Plant response rating, S. Flatsedge (0 to 10 scale, 0 is no effect, 10 is complete control) (smallflower flatsedge; [8]) | S. Flatsedge plant response rating (0 to 10 scale, 0 is no effect, 10 is complete control) (smallflower flatsedge; [9]) | S. Flatsedge plant response rating (smallflower flatsedge; [10]) | S. Flatsedge plant response rating (smallflower flatsedge; [11]) | Bedstraw plant response rating (bedstraw; [4]) | Bedstraw plant response rating (bedstraw; [5]) | Bedstraw plant response rating (0 to 10 scale) (bedstraw; Preemergence, Rate 250 g/ha) | B. signalgrass plant response rating (surinam grass; [1]) | B. signalgrass plant response rating (surinam grass; [2]) | Plant response rating, B. signalgrass (surinam grass; [3]) | Plant response rating, B. signalgrass (surinam grass; [7]) | Wild oats plant response rating (wild oat; [1]) | Wild oats plant response rating (wild oat; [4]) | Wild oats plant response rating (wild oat; [5]) | Wild oats plant response rating (0 to 10 scale) (wild oat; Preemergence, Rate 250 g/ha) | Plant response rating, Wild oats (wild oat; [7])
4: Plant response rating, Rape (rape; [7]) | Redroot pigweed plant response rating (pigweed; [5]) | Redroot pigweed plant response rating (0 to 10 scale) (pigweed; Preemergence, Rate 250 g/ha) | Redroot pigweed plant response rating (pigweed; [6]) | Plant response rating, Cocklebur (cocklebur; [3]) | B. signalgrass plant response rating (surinam grass; [4])
